Laboratory results reported in ChEMBL document CHEMBL1140453, “Solid-phase synthesis and thermal denaturation study of cyclic PNAs targeting the HIV-1 TAR RNA loop” (Bioorg Med Chem Lett, 2007).

How the values were obtained:
Nucleic Acid [1] = experiment: Binding affinity to HIV1 3B mini TAR RNA assessed as melting temperature by UV spectrometry based thermal denaturation assay; type: nucleic-acid assay; conditions: Human immunodeficiency virus 1
Nucleic Acid [2] = experiment: Binding affinity to HIV1 3B mini TAR RNA assessed as change in melting temperature by UV spectrometry based thermal denaturation assay; type: nucleic-acid assay; conditions: Human immunodeficiency virus 1

Tm (Nucleic Acid [1]) [°C]	ΔTm (Nucleic Acid [2]) [°C]	SMILES
43.2	–	Cc1cn(CC(=O)N(CCNC(=O)CN(CCNC(=O)[C@@H](N)CCCCN)C(=O)Cn2cnc3c(=O)[nH]c(N)nc32)CC(=O)NCCN(CC(=O)NCCN(CC(=O)NCCN(CC(=O)NCCN(CC(=O)NCCN(CC(=O)NCCN(CC(=O)N[C@@H](CCC(N)=O)C(=O)O)C(=O)Cn2cnc3c(N)ncnc32)C(=O)Cn2cnc3c(=O)[nH]c(N)nc32)C(=O)Cn2cnc3c(N)ncnc32)C(=O)Cn2ccc(N)nc2=O)C(=O)Cn2cnc3c(N)ncnc32)C(=O)Cn2ccc(N)nc2=O)c(=O)[nH]c1=O
40.5	0.5	Cc1cn(CC(=O)N(CCNC(=O)CN(CCNC(=O)[C@@H](N)CCCCN)C(=O)Cn2cnc3c(=O)[nH]c(N)nc32)CC(=O)NCCN(CC(=O)NCCN(CC(=O)NCCN(CC(=O)NCCN(CC(=O)NCCN(CC(=O)NCCN(CC(=O)N[C@@H](CCC(N)=O)C(=O)O)C(=O)Cn2cnc3c(N)ncnc32)C(=O)Cn2cnc3c(=O)[nH]c(N)nc32)C(=O)Cn2cnc3c(N)ncnc32)C(=O)Cn2ccc(N)nc2=O)C(=O)Cn2ccc(N)nc2=O)C(=O)Cn2ccc(N)nc2=O)c(=O)[nH]c1=O
